Laboratory results as given in patent publication US20260216196A1, “IMIDAZO[1,2-A]PYRIDINE AND IMIDAZO[1,2-A]PYRAZINE DERIVATIVES AS MLLT1 AND MLLT3 INHIBITORS” (DARK BLUE THERAPEUTICS LTD., priority 2022, published 2026).
Where a name gives a salt, the structure may show the parent alone.

Assays:
MLLT3 = MLLT3 (Homo sapiens, UniProt P42568); test: HTRF IC50 determination assay, MLLT3 / H3K9cro peptide displacement; conditions: MLLT3 assay IC50 (nM), 6His tagged MLLT3, biotinylated H3K9cro peptide, compound 20 μM to 20 nM, 11 data points in duplicate
MLLT1 = MLLT1 (Homo sapiens, UniProt Q03111); test: biochemical; conditions: MLLT1 assay IC50 (nM), HTRF, 6His tagged MLLT1, biotinylated H3K9cro peptide; compound 20 μM to 20 nM, 11 data points in duplicate
Sequence of MLLT1 (Q03111 whole entry): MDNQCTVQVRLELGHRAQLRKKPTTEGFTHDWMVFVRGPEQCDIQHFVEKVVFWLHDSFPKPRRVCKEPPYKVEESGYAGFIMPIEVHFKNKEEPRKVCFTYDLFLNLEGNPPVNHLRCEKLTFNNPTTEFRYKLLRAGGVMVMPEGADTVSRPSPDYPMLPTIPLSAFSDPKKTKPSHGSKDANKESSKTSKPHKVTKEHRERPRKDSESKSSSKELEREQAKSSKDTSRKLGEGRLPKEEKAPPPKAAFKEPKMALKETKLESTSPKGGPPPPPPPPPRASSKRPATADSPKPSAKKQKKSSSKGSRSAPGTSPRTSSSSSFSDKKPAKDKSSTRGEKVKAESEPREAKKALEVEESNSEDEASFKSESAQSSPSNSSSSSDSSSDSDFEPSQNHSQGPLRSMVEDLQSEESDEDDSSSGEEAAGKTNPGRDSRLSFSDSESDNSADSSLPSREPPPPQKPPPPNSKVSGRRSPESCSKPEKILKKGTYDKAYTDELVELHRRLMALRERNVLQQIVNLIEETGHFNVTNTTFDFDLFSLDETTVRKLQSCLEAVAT

Sequence of MLLT3 (P42568 whole entry): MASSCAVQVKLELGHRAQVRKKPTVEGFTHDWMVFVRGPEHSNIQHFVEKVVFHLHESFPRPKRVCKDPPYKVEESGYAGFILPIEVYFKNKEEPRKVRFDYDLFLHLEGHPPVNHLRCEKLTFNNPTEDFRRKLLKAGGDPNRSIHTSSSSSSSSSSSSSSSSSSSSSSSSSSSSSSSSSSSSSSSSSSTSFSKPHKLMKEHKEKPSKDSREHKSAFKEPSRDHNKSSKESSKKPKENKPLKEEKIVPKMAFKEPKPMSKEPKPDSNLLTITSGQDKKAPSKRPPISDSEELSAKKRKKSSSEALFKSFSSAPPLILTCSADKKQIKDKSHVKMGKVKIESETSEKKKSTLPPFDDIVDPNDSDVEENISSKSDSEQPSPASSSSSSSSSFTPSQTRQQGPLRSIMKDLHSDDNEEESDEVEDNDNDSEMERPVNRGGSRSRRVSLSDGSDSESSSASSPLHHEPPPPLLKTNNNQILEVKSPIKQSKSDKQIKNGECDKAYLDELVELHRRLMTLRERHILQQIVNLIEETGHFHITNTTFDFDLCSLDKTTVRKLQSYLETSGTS

Row | SMILES | IC50 (MLLT3) [nM] | IC50 (MLLT1) [nM]
1 | CN1CCCC1c1cn2cc(NC(=O)c3cnc(-c4ccccc4)o3)ccc2n1 (racemic) [Example 46, rac-N-[2-(1-methylpyrrolidin-2-yl)imidazo[1,2-a]pyridin-6-yl]-2-phenyl-1,3-oxazole-5-carboxamide] | 1500 to 20000 | 1500 to 20000
2 | Cc1c(C(=O)Nc2ccc3nc(C4CCCN4C)cn3c2)sc2nc[nH]c(=O)c12 (racemic) [Example 44, rac-5-methyl-N-[2-(1-methylpyrrolidin-2-yl)imidazo[1,2-a]pyridin-6-yl]-4-oxo-3H,4H-thieno[2,3-d]pyrimidine-6-carboxamide] | 1500 to 20000 | 1500 to 20000
3 | CN1C2CCCCC2C[C@@H]1c1cn2cc(NC(=O)c3ccc4c(cnn4C)c3)ccc2n1 (stereo partly drawn) [Example 58, 1-methyl-N-{2-[(2R)-1-methyl-octahydro-1H-indol-2-yl]imidazo[1,2-a]pyridin-6-yl}-1H-indazole-5-carboxamide] | 150 to 1500 | 150 to 1500
4 | CN1CCCC1c1cn2cc(NC(=O)c3ccc4c(cnn4C)c3)ncc2n1 (racemic) [Example 68, rac-1-methyl-N-[2-(1-methylpyrrolidin-2-yl)imidazo[1,2-a]pyrazin-6-yl]-1H-indazole-5-carboxamide] | 150 to 1500 | 150 to 1500
5 | CN1CCCC1c1cn2cc(NC(=O)c3cc4ccncc4cc3F)ccc2n1 (single isomer, unassigned) [Example 26] | 150 to 1500 | 150 to 1500
6 | CN1CCCC1c1cn2cc(NC(=O)c3ccc4c(c3)c(C3CCNC3)nn4C)ccc2n1 (racemic) [Example 56, rac-1-methyl-N-(2-(1-methylpyrrolidin-2-yl)imidazo[1,2-a]pyridin-6-yl)-3-(pyrrolidin-3-yl)-1H-indazole-5-carboxamide formate] | 150 to 1500 | 150 to 1500
7 | CN1CCCC1c1cn2cc(NC(=O)c3ccc(-n4cccn4)cc3)ccc2n1 (racemic) [Example 40, rac-N-[2-(1-methylpyrrolidin-2-yl)imidazo[1,2-a]pyridin-6-yl]-4-(1H-pyrazol-1-yl)benzamide] | 1500 to 20000 | 150 to 1500
8 | CN1CCCC1c1cn2cc(NC(=O)c3cc(-c4cnccn4)ccc3F)ccc2n1 (single isomer, unassigned) [Example 24] | 1500 to 20000 | 150 to 1500
9 | CN1CCOCC1c1cn2cc(NC(=O)c3ccc4c(cnn4C)c3)ccc2n1 (racemic) [Example 2, rac-1-methyl-N-[2-(4-methylmorpholin-3-yl)imidazo[1,2-a]pyridin-6-yl]indazole-5-carboxamide] | 1500 to 20000 | 1500 to 20000
10 | CCN1CCCC1c1cn2cc(NC(=O)c3ccc4c(C)nn(C)c4c3)ncc2n1 (single isomer, unassigned) [Example 88, N-{2-[(rel-2S)-1-ethylpyrrolidin-2-yl]imidazo[1,2-a]pyrazin-6-yl}-1,3-dimethylindazole-6-carboxamide] | 1500 to 20000 | 1500 to 20000
11 | CN1CCCC1c1cn2cc(NC(=O)c3ccc(-c4cnccn4)cc3F)ccc2n1 (single isomer, unassigned) [Example 19] | 1500 to 20000 | 150 to 1500
12 | CN1CCCC1c1cn2cc(NC(=O)c3ccc(-n4cncn4)cc3)ccc2n1 (racemic) [Example 12, rac-N-[2-(1-methylpyrrolidin-2-yl)imidazo[1,2-a]pyridin-6-yl]-4-(1H-1,2,4-triazol-1-yl)benzamide] | 1500 to 20000 | 150 to 1500
13 | COc1ccc2c(C(=O)Nc3ccc4nc(C5CCCN5C)cn4c3)c[nH]c2c1 (racemic) [Example 39, rac-6-methoxy-N-[2-(1-methylpyrrolidin-2-yl)imidazo[1,2-a]pyridin-6-yl]-1H-indole-3-carboxamide] | > 20000 | 1500 to 20000
14 | Cc1nn(C)c2ncc(C(=O)Nc3ccc4nc(C5CCCN5C)cn4c3)c(Cl)c12 (racemic) [Example 15, rac-4-chloro-1,3-dimethyl-N-[2-(1-methylpyrrolidin-2-yl)imidazo[1,2-a]pyridin-6-yl]-1H-pyrazolo[3,4-b]pyridine-5-carboxamide] | 1500 to 20000 | 1500 to 20000
15 | Cc1noc2nc(C(=O)Nc3ccc4nc(C5CCCN5C)cn4c3)ccc12 (racemic) [Example 50, rac-3-methyl-N-[2-(1-methylpyrrolidin-2-yl)imidazo[1,2-a]pyridin-6-yl]-[1,2]oxazolo[5,4-b]pyridine-6-carboxamide] | 1500 to 20000 | 1500 to 20000
16 | CN1CCC[C@@H]1c1cn2cc(NC(=O)c3ccc4c(cnn4C)c3)nc(C3CC3)c2n1 [Example 99, N-[8-cyclopropyl-2-[(2R)-1-methylpyrrolidin-2-yl]imidazo[1,2-a]pyrazin-6-yl]-1-methyl-indazole-5-carboxamide] | 1500 to 20000 | 150 to 1500
17 | CN1CCCC1c1cn2cc(NC(=O)c3ccn4ccnc4c3)ccc2n1 (racemic) [Example 32, rac-N-[2-(1-methylpyrrolidin-2-yl)imidazo[1,2-a]pyridin-6-yl]imidazo[1,2-a]pyridine-7-carboxamide] | 1500 to 20000 | 150 to 1500
18 | CN1CC2(CCCC2)CC1c1cn2cc(NC(=O)c3ccc4c(cnn4C)c3)ccc2n1 (racemic) [Example 3, rac-1-methyl-N-(2-{2-methyl-2-azaspiro[4.4]nonan-3-yl}imidazo[1,2-a]pyridin-6-yl)indazole-5-carboxamide] | 150 to 1500 | 150 to 1500
19 | CN1CCCC1c1cn2cc(NC(=O)c3ccc(-c4ncccn4)cc3F)ccc2n1 (single isomer, unassigned) [Example 20] | 1500 to 20000 | 1500 to 20000
20 | Cc1ncc(-c2ccc(F)c(C(=O)Nc3ccc4nc(C5CCCN5C)cn4c3)c2)s1 (single isomer, unassigned) [Example 23] | 150 to 1500 | 150 to 1500
21 | COCCc1nn(C)c2ccc(C(=O)Nc3ccc4nc(C5CCCN5C)cn4c3)cc12 (racemic) [Example 49, rac-3-(2-methoxyethyl)-1-methyl-N-[2-(1-methylpyrrolidin-2-yl)imidazo[1,2-a]pyridin-6-yl]-1 H-indazole-5-carboxamide] | 150 to 1500 | 150 to 1500
22 | Cc1nn(C)c2cc(C(=O)Nc3cn4cc(C5CN(C)CCN5C)nc4cn3)ccc12 (single isomer, unassigned) [Example 67] | 150 to 1500 | 150 to 1500
23 | CCc1nnc2cc(C(=O)Nc3ccc4nc(C5CCCN5C)cn4c3)ccn12 (racemic) [Example 35, rac-3-ethyl-N-[2-(1-methylpyrrolidin-2-yl)imidazo[1,2-a]pyridin-6-yl]-[1,2,4]triazolo[4,3-a]pyridine-7-carboxamide formate] | 1500 to 20000 | 1500 to 20000
24 | Cc1nn(C)c2cc(C(=O)Nc3cn4cc([C@H]5CCCN5)nc4cn3)ccc12 [Example 76, 1,3-dimethyl-N-[2-[(2R)-pyrrolidin-2-yl]imidazo[1,2-a]pyrazin-6-yl]indazole-6-carboxamide] | 1500 to 20000 | 150 to 1500
25 | CN1CCCC1c1cn2cc(NC(=O)c3ccc(-c4cnn(C)c4)cc3F)ccc2n1 (single isomer, unassigned) [Example 21] | 150 to 1500 | 150 to 1500
26 | Cc1noc2cc(C(=O)Nc3ccc4nc(C5CCCN5C)cn4c3)ccc12 (racemic) [Example 29, rac-3-methyl-N-[2-(1-methylpyrrolidin-2-yl)imidazo[1,2-a]pyridin-6-yl]-1,2-benzoxazole-6-carboxamide] | 1500 to 20000 | 1500 to 20000
